Laboratory results: patent US20240285557A1, “PHARMACEUTICAL COMPOSITION COMPRISING LIPASE INHIBITOR FOR TREATMENT OR TREATMENT OF RNA VIRAL INFECTIONS” (priority 2021, published 2024)
pIC50: −log10 of the molar value. Entries after “also recorded” stand apart in the source; their conditions may differ.

Key:
SARS-COV-2 strain KCDC03 = type: cell-based
[1] = system: influenza A virus PR8 strain; type: cell-based
[2] = system: influenza A virus hemagglutinin (H) and M2 proteins; type: cell-based; conditions: A549, 20 μM; vs vehicle
[3] = system: spike (S) protein of SARS-COV-2; test: Palmitoylation assay in SARS-CoV-2-infected Vero E6 cells; type: cell-based; conditions: Vero E6, 20 μM; vs vehicle
Method: CO2 incubator. The cells were then washed with phosphate-buffered saline, and DMEM supplemented with 1 μg/ml TPCK-treated trypsin, 100 u/ml penicillin, and 100 ug/ml streptomycin was added. Afterward, the cells were incubated in a 37° C. CO2 incubator for 18 hours. […] Following an additional 18-hour incubation, the cells were washed with phosphate-buffered saline, treated with trypsin, harvested, and centrifuged. The palmitoylation assay (Badrilla, Leeds, UK) was then conducted on these cells according to the manufacturer's instructions.
The cell pellet was washed with phosphate-buffered saline and then mixed with Buffer A containing Thiol Blocking Reagent. The mixture was incubated at 40° C. for 4 hours with continuous stirring. Subsequently, 70% acetone was added to precipitate the proteins, and the supernatant was discarded. The acetone addition process was repeated five times. The pellet was thoroughly washed, followed by elution in a binding buffer at 40° C. for 3 hours. A portion of the eluted supernatant was mixed with Laemmli Sample Buffer and used as an input control for total protein, while the remainder underwent a purification process for palmitoylated proteins.
Initially, the total protein supernatant was mixed with CAPTUREome™ Capture Resin and Thio Cleavage Reagent, and the mixture was incubated on a rotary mixer at 20° C. for 3 hours. […]

[4] = MTT half-maximal cytotoxic concentration (CC50); conditions: rhesus monkey
Method: (§1) To determine the half-maximal cytotoxic concentration (CC50) of the lipase inhibitors atglistatin and CAY10499, Vero E6, A549, HRT-18G, MA104, MARC-145, and LLC-PK cells were prepared in monolayers in 96-well plates.
(§2) The cells were treated with the drugs for 24 hours, and the culture media was removed before addition of 200 μL of 3-(4,5-dimethylthiazol-2-yl)-2,5-diphenyl tetrazolium bromide (MTT) solution to each well. The plates were then incubated for 4 hours in a 5% CO2 incubator at 36° C. Subsequently, 150 μL of DMSO solution was added to each well and incubated at 20° C. The optical density (OD) was measured at 570 nm wavelength using an enzyme-linked immunosorbent assay (ELISA) reader.

SARS-COV-2 KCDC03 strain = test: SARS-CoV-2-infected hamsters treated with lipase inhibitor; conditions: for alleviation (reduction) of pneumonia severity: 80 mg kg^−1 day^−1 intraperitoneally for 4.5 days; for pneumonia severity: 20, 40, 80 mg kg^−1 day^−1, dose-dependent; for production of free fatty acids and glycerol in lung tissue: 20 to 80 mg kg^−1 day^−1; for number of viral genes (viral genome copy number) in lung tissue / progeny viruses in lung tissue: fifth day post-infection; for weight loss: five days observation
[5] = MTT half-maximal cytotoxic concentration (CC50); conditions: pig
Method: as §1, §2

[6] = system: Porcine respiratory reproductive syndrome virus (LMY); test: microbe, parasite or virus in culture; conditions: Porcine reproductive and respiratory syndrome virus, MARC145, in Sus scrofa, 18 h
[7] = system: Porcine epidemic diarrhea coronavirus (QIAP1401); test: organism not typed; conditions: Vero C1008, 18 h
[8] = CC50 range over the cell line panel
Method: as §1, §2

[9] = system: Bovine coronavirus (KWD20); test: microbe, parasite or virus in culture; conditions: Betacoronavirus 1, 18 h
[10] = system: Species A Rotavirus (NCDV); test: microbe, parasite or virus in culture; conditions: MA104, in Bos taurus, 12 h
[11] = system: Influenza A virus (H1N1) (PR8); test: microbe, parasite or virus in culture; conditions: H1N1|PR8, A549, 12 h, drug added after 12 hours, additional 12 hours
[12] = MTT half-maximal cytotoxic concentration (CC50); conditions: dog
[13] = system: Porcine sapovirus (Cowden); test: microbe, parasite or virus in culture; conditions: Sapporo virus, LLCPK, 18 h
[14] = system: influenza A virus PR8 strain; type: cell-based; conditions: influenza A virus M2 protein, A549; 1, 10, 20 μM
[15] = system: bovine species A rotavirus NCDV strain; test: Viral antigen expression (Western blot, immunofluorescence) in infected MA104 cells; type: cell-based; conditions: rotavirus VP6 protein, 1, 10, 20 μM
[16] = system: porcine sapovirus Cowden strain; test: Viral antigen expression (Western blot, immunofluorescence) in infected LLC-PK cells; type: cell-based; conditions: porcine sapovirus VPg protein, 1, 10, 20 μM
[17] = system: bovine coronavirus KWD20 strain; type: cell-based; conditions: bovine coronavirus spike protein, HRT-18G; 1, 10, 20 μM
[18] = system: porcine epidemic diarrhea coronavirus QIAP1401 strain; test: Viral antigen expression (Western blot, immunofluorescence) in infected Vero E6 cells; type: cell-based; conditions: PEDV nucleocapsid protein, 1, 10, 20 μM
Method: The virus was incubated at 37° C. for 18 hours, after which the medium was changed with a medium containing DABPU-EM or DABPU-DE at a final concentration of 1 μM, […], or 20 μM. Following an additional 18 hours of incubation, the Vero E6 cells in 6-well plates were washed with phosphate-buffered saline, collected by scaping, and centrifuged. The cell pellet thus obtained was subjected to Western blot analysis. The intensity of the porcine epidemic diarrhea coronavirus nucleocapsid protein detected was assessed by comparison with the relative positive signals of the internal control beta-actin using the ImageJ software. Separately, the Vero E6 cells in 8-well chambers were washed with phosphate-buffered saline, fixed with 4% paraformaldehyde, and then subjected to immunofluorescence staining for porcine epidemic diarrhea coronavirus nucleocapsid protein in the same manner as described in the foregoing.

SARS COV-2 KCDC03 strain = type: cell-based; conditions: SARS-CoV-2 spike protein, Vero E6; 1, 10, 20 μM
[19] = listed as atglistatin (DABPU-DM)
[20] = vs untreated virus-inoculated group

Method for A549 cells: as §1, §2

Row | SMILES | free fatty acids and glycerol in the cytoplasm (SARS-COV-2 strain KCDC03) | number of lipid droplets (SARS-COV-2 strain KCDC03) | progeny virus count (SARS-COV-2 strain KCDC03) | viral gene count (SARS-COV-2 strain KCDC03) | virus spike protein synthesis (SARS-COV-2 strain KCDC03) | levels of free fatty acids and glycerol in the cytoplasm [1] | number of lipid droplets [1] | production of virus M2 protein [1] | progeny virus titer [1] | viral genome copy [1] | palmitoylation of both hemagglutinin (H) and M2 proteins [2] | palmitoylation of the spike (S) protein of SARS-COV-2 [3] | CC50 at 24 h [4] [µM] | alleviation (reduction) of pneumonia severity (SARS-COV-2 KCDC03 strain) [%] | pneumonia severity (SARS-COV-2 KCDC03 strain) | production of free fatty acids and glycerol in lung tissue (SARS-COV-2 KCDC03 strain) | number of viral genes (viral genome copy number) in lung tissue (SARS-COV-2 KCDC03 strain) | progeny viruses in lung tissue (SARS-COV-2 KCDC03 strain) | weight loss (SARS-COV-2 KCDC03 strain) | CC50 at 24 h [5] [µM] | other results
1 | COc1nn(-c2ccc(NC(=O)OCc3ccccc3)c(C)c2)c(=O)o1 [CAY10499] | significant decrease | did not decrease significantly | significant decrease | significant decrease | significant decrease | significant decrease | did not significantly decrease | significant decrease | significant decrease | significant decrease | significantly decreased | significantly reduced | – | – | – | – | – | – | – | – | CC50 (LLC-PK cells): 109 µM; CC50 (A549 cells): 106 µM
2 | CN(C)C(=O)Nc1cccc(-c2ccc(N(C)C)cc2)c1 [Atglistatin, 3-(4′-(dimethylamino)-(1,1′-biphenyl)-3-yl)-1,1-dimethylurea] | significant decrease | did not decrease significantly | significant decrease | significant decrease | significant decrease | significant decrease | did not significantly decrease | significant decrease | significant decrease | significant decrease | significantly decreased | significantly reduced | 214 | 73 | alleviating pneumonia severity in a dose-dependent manner | significantly reducing | significant decrease | significant decrease | ceasing weight loss | 224 | alleviation (reduction) of pneumonia severity (SARS-COV-2 KCDC03 strain; [19]): 70%; production of free fatty acids and glycerol in lung tissue (SARS-COV-2 KCDC03 strain; [19]): decreasing; number of viral genes (viral genome copy number) in lung tissue (SARS-COV-2 KCDC03 strain; [19]): significantly reduced; progeny viruses in lung tissue (SARS-COV-2 KCDC03 strain; [19]): significantly reduced; weight loss (SARS-COV-2 KCDC03 strain; [19]): blocking weight loss; level of viral antigens in the alveolar epithelial cells (SARS-COV-2 KCDC03 strain; [20]): significant decrease; lung lesions, including interstitial pneumonia, and number of virus-positive cells (SARS-COV-2 KCDC03 strain; [20]): alleviating and reducing; number of lipid droplets in alveolar epithelial cells (SARS-COV-2 KCDC03 strain; [20]): did not decrease significantly; pIC50 [6]: 5.60; pIC50 [7]: 5.71; CC50 at 24 h [8]: 182 to 269 µM; pIC50 [9]: 5.92; pIC50 [10]: 5.17; pIC50 [11]: 6.09; CC50 at 24 h [12]: 269 µM; pIC50 [13]: 5.51
3 | CCN(C)C(=O)Nc1cccc(-c2ccc(N(C)C)cc2)c1 [DABPU-EM, 3-(4′-(dimethylamino)-(1,1′-biphenyl)-3-yl)-1-ethyl-1-methylurea] | – | – | – | – | – | – | – | – | – | – | – | – | 223 | – | – | – | – | – | – | 231 | expression levels of the viral antigen in infected cells [14]: inhibitory activity; expression levels of the viral antigen in infected cells [15]: inhibitory activity; pIC50 [6]: 5.57; pIC50 [7]: 5.71; CC50 at 24 h ([8]; human, African green monkey, dog, pig): 186 to 231 µM; pIC50 [9]: 5.46; expression levels of the viral antigen in infected cells [16]: inhibitory activity; expression levels of the viral antigen in infected cells [17]: inhibitory activity; pIC50 [10]: 5.15; pIC50 [11]: 5.79; expression levels of the viral antigen in infected cells [18]: inhibitory activity; pIC50 [13]: 5.43; expression levels of the viral antigen in infected cells (SARS COV-2 KCDC03 strain): inhibitory activity
4 | CCN(CC)C(=O)Nc1cccc(-c2ccc(N(C)C)cc2)c1 [DABPU-DE] | – | – | – | – | – | – | – | – | – | – | – | – | – | 75 | alleviating pneumonia severity in a dose-dependent manner | decreasing; also recorded: lower levels | significantly reduced | significantly reduced | blocking weight loss | – | expression levels of the viral antigen in infected cells [14]: higher inhibitory effects of DABPU-DE than DABPU-EM; expression levels of the viral antigen in infected cells [15]: higher inhibitory effects of DABPU-DE than DABPU-EM; expression levels of the viral antigen in infected cells [16]: higher inhibitory effects of DABPU-DE than DABPU-EM; expression levels of the viral antigen in infected cells [17]: higher inhibitory effects of DABPU-DE than DABPU-EM; expression levels of the viral antigen in infected cells [18]: higher inhibitory effects of DABPU-DE than DABPU-EM; expression levels of the viral antigen in infected cells (SARS COV-2 KCDC03 strain): higher inhibitory effects of DABPU-DE than DABPU-EM
